According to patent publication US20260256792A1, “TREATMENT OF CHRONIC SPONTANEOUS URTICARIA BY ADMINISTERING (R)-2-[3-[4-AMINO-3-(2-FLUORO-4-PHENOXY-PHENYL)PYRAZOLO[3,4-D]PYRIMIDIN-1-YL]PIPERIDINE-1-CARBONYL]-4-METHYL-4-[4-(OXETAN-3-YL)PIPERAZIN-1-YL]PENT-2-ENENITRILE” (priority 2023, published 2026):

Tested on: moderate-to-severe chronic spontaneous urticaria (CSU)
Assay: Phase 2 CSU study: urticaria control test (UCT)
Assay type: in vivo, human
Parameters: key to UCT, Mean / UCT, Median / UCT change from baseline, Mean / UCT change from baseline, Median: UCT total = sum of 4 item scores; low = low disease control
Description: The study comprises a 12 week, randomized, double-blind, placebo-controlled, multi-center, dose-ranging efficacy and safety phase, followed by a 40 week open label extension (OLE) phase (see FIG. 1). The study consists of three phases and an optional OLE phase. […] To this end, the UCT was proposed as a tertiary endpoint in this study. […] The dermatology life quality index (DLQI) was proposed as a tertiary endpoint in this study. […] Low scores indicate high disease activity and low disease control. The UCT total score is calculated by adding all 4 individual item scores. […] The recall period is the previous 4 weeks. Patients were to complete the UCT questionnaire during their site visit.

[1] = 400 mg QPM, Week 8, ITT population
[2] = 400 mg QPM, Week 8, omalizumab-naïve population
[3] = 400 mg QPM, Week 8, prior omalizumab use incl. incomplete responders
[4] = 400 mg QPM, Week 12, ITT population
[5] = 400 mg QPM, Week 12, omalizumab-naïve population
[6] = 400 mg QPM, Week 12, prior omalizumab use incl. incomplete responders
[7] = 400 mg TID, End of study, omalizumab-naïve population
[8] = 400 mg TID, End of study, prior omalizumab use incl. incomplete responders
[9] = 400 mg TID, Week 4, ITT population
[10] = 400 mg TID, Week 4, omalizumab-naïve population
[11] = 400 mg TID, Week 4, prior omalizumab use incl. incomplete responders
[12] = 400 mg TID, Week 8, ITT population
[13] = 400 mg TID, Week 8, omalizumab-naïve population
[14] = 400 mg TID, Week 8, prior omalizumab use incl. incomplete responders
[15] = 400 mg TID, Week 12, ITT population
[16] = 400 mg TID, Week 12, omalizumab-naïve population
[17] = 400 mg TID, Week 12, prior omalizumab use incl. incomplete responders

CC(C)(C=C(C#N)C(=O)N1CCC[C@@H](n2nc(-c3ccc(Oc4ccccc4)cc3F)c3c(N)ncnc32)C1)N1CCN(C2COC2)CC1 [rilzabrutinib, (R)-2-[3-[4-amino-3-(2-fluoro-4-phenoxy-phenyl)pyrazolo[3,4-d]pyrimidin-1-yl]piperidine-1-carbonyl]-4-methyl-4-[4-(oxetan-3-yl)piperazin-1-yl]pent-2-enenitrile]
UCT % Change difference for rilzabrutinib vs. placebo LS Mean (95% CI) [1]: −37.84 (−167.44, 91.76) %
UCT % Change from baseline LS Mean (SE) [1]: 126.71 (44.63) %
UCT Change difference for rilzabrutinib vs. placebo LS Mean (95% CI) [1]: −1.21 (−3.16, 0.74)
UCT Change from baseline LS Mean (SE) [1]: 3.16 (0.71)
UCT Post-baseline Mean (SD) [1]: 6.97 (3.84)
UCT % Change difference for rilzabrutinib vs. placebo LS Mean (95% CI) [2]: −48.49 (−177.78, 80.81) %
UCT % Change from baseline LS Mean (SE) [2]: 121.09 (44.66) %
UCT Change difference for rilzabrutinib vs. placebo LS Mean (95% CI) [2]: −1.49 (−3.43, 0.45)
UCT Change from baseline LS Mean (SE) [2]: 2.98 (0.71)
UCT Post-baseline Mean (SD) [2]: 6.84 (3.84)
UCT change from baseline, Mean [2]: 3.09
UCT change from baseline, Median [2]: 2.00
UCT percent change from baseline, Mean [2]: 138.85%
UCT, Median [2]: 7.00
UCT change from baseline, Mean [3]: 6.00
UCT change from baseline, Median [3]: 6.00
UCT percent change from baseline, Mean [3]: 120.00%
UCT percent change from baseline, Median [3]: 120.00%
UCT % Change difference for rilzabrutinib vs. placebo LS Mean (95% CI) [4]: −100.02 (−238.68, 38.64) %
UCT % Change from baseline LS Mean (SE) [4]: 99.76 (47.53) %
UCT Change difference for rilzabrutinib vs. placebo LS Mean (95% CI) [4]: −1.82 (−3.87, 0.23)
UCT Change from baseline LS Mean (SE) [4]: 2.92 (0.76)
UCT Post-baseline Mean (SD) [4]: 6.97 (3.84)
UCT % Change difference for rilzabrutinib vs. placebo LS Mean (95% CI) [5]: −105.95 (−247.17, 35.27) %
UCT Change difference for rilzabrutinib vs. placebo LS Mean (95% CI) [5]: −1.96 (−3.99, 0.08)
UCT Change from baseline LS Mean (SE) [5]: 2.77 (0.75)
UCT Post-baseline Mean (SD) [5]: 6.88 (3.86)
UCT change from baseline, Mean [5]: 3.13
UCT change from baseline, Median [5]: 2.00
UCT percent change from baseline, Mean [5]: 121.74%
UCT percent change from baseline, Median [5]: 92.86%
UCT, Median [5]: 7.00
UCT change from baseline, Mean [6]: 5.00
UCT change from baseline, Median [6]: 5.00
UCT percent change from baseline, Mean [6]: 100.00%
UCT percent change from baseline, Median [6]: 100.00%
UCT over baseline (400 mg TID): mild increase
UCT change from baseline, Mean [7]: 4.00
UCT change from baseline, Median [7]: 4.00
UCT percent change from baseline, Mean [7]: 41.03%
UCT percent change from baseline, Median [7]: 41.03%
UCT change from baseline, Mean [8]: 11.60
UCT change from baseline, Median [8]: 13.00
UCT percent change from baseline, Mean [8]: 7.80%
UCT percent change from baseline, Median [8]: 9.00%
UCT, Mean [8]: 4.83
UCT, Median [8]: 4.00
UCT % Change difference for rilzabrutinib vs. placebo LS Mean (95% CI) [9]: 122.56 (−10.01, 255.13) %
UCT % Change from baseline LS Mean (SE) [9]: 262.11 (48.72) %
UCT Change difference for rilzabrutinib vs. placebo LS Mean (95% CI) [9]: 2.34 (0.46, 4.22)
UCT Change from baseline LS Mean (SE) [9]: 5.68 (0.68)
UCT Post-baseline Mean (SD) [9]: 10.03 (4.20)
UCT % Change difference for rilzabrutinib vs. placebo LS Mean (95% CI) [10]: 124.43 (−9.74, 258.61) %
UCT % Change from baseline LS Mean (SE) [10]: 267.24 (49.68) %
UCT Change difference for rilzabrutinib vs. placebo LS Mean (95% CI) [10]: 2.23 (0.33, 4.13)
UCT Change from baseline LS Mean (SE) [10]: 5.47 (0.70)
UCT Post-baseline Mean (SD) [10]: 9.77 (4.17)
UCT change from baseline, Mean [10]: 5.63
UCT change from baseline, Median [10]: 6.50
UCT percent change from baseline, Mean [10]: 254.30%
UCT percent change from baseline, Median [10]: 100.00%
UCT change from baseline, Mean [11]: 7.80
UCT change from baseline, Median [11]: 9.00
UCT percent change from baseline, Mean [11]: 146.88%
UCT percent change from baseline, Median [11]: 143.75%
UCT, Median [11]: 13.00
UCT % Change difference for rilzabrutinib vs. placebo LS Mean (95% CI) [12]: 108.30 (−18.30, 234.90) %
UCT % Change from baseline LS Mean (SE) [12]: 272.85 (43.60) %
UCT Change difference for rilzabrutinib vs. placebo LS Mean (95% CI) [12]: 1.43 (−0.50, 3.37)
UCT Change from baseline LS Mean (SE) [12]: 5.80 (0.69)
UCT Post-baseline Mean (SD) [12]: 10.00 (3.85)
UCT % Change difference for rilzabrutinib vs. placebo LS Mean (95% CI) [13]: 102.55 (−31.38, 236.49) %
UCT % Change from baseline LS Mean (SE) [13]: 272.13 (49.40) %
UCT Change difference for rilzabrutinib vs. placebo LS Mean (95% CI) [13]: 1.19 (−0.75, 3.12)
UCT Change from baseline LS Mean (SE) [13]: 5.66 (0.71)
UCT Post-baseline Mean (SD) [13]: 9.80 (3.86)
UCT change from baseline, Median [13]: 6.50
UCT percent change from baseline, Mean [13]: 277.48%
UCT percent change from baseline, Median [13]: 120.83%
UCT, Median [13]: 9.50
UCT change from baseline, Median [14]: 5.00
UCT percent change from baseline, Mean [14]: 107.33%
UCT percent change from baseline, Median [14]: 25.00%
UCT % Change difference for rilzabrutinib vs. placebo LS Mean (95% CI) [15]: 122.43 (−16.89, 261.74) %
UCT % Change from baseline LS Mean (SE) [15]: 322.21 (47.00) %
UCT Change difference for rilzabrutinib vs. placebo LS Mean (95% CI) [15]: 1.80 (−0.20, 3.79)
UCT Change from baseline LS Mean (SE) [15]: 6.53 (0.70)
UCT Post-baseline Mean (SD) [15]: 10.69 (4.25)
UCT % Change difference for rilzabrutinib vs. placebo LS Mean (95% CI) [16]: 131.76 (−18.16, 281.68) %
UCT % Change from baseline LS Mean (SE) [16]: 329.00 (51.79) %
UCT Change difference for rilzabrutinib vs. placebo LS Mean (95% CI) [16]: 1.58 (−0.47, 3.63)
UCT Change from baseline LS Mean (SE) [16]: 6.31 (0.76)
UCT change from baseline, Median [16]: 6.00
UCT percent change from baseline, Mean [16]: 311.71%
UCT percent change from baseline, Median [16]: 102.86%
UCT change from baseline, Mean [17]: 8.00
UCT change from baseline, Median [17]: 9.00
UCT percent change from baseline, Mean [17]: 156.25%
UCT percent change from baseline, Median [17]: 162.50%
patients achieving a UCT≥12 (400 mg TID, over time up to Week 12): > 20%
